Source: patent publication US11198710B2, “Transgenic plant having herbicide resistance” (priority 2016, dated 2021)
pIC50: −log10 of the molar value. Read-outs that look alike come from different tables or passages of the source.

Legend:
TaQ8GTC0 protein = experiment: Glutathione conjugation activity of the TaQ8GTC0 protein to VLCFAE-inhibiting herbicides (HPLC); format: biochemical, wheat (Triticum aestivum); details: 378 ng TaQ8GTC0 protein, 10 μl of 1 mM herbicide in 200 μl, 30° C., 15 minutes; mean ± standard deviation
Protocol: All the VLCFAE-inhibiting herbicides used in this example were added to the reaction mixture as acetone solutions. Conjugation reactions to the VLCFAE-inhibiting herbicides were performed in a reaction mixture (total amount: 200 μl) containing 50 μl of 100 mM potassium phosphate buffer (pH 6.8), 10 μl of 1 mM VLCFAE-inhibiting herbicide, 20 μl of 10 mM reduced glutathione (pH 7.0), 6 μl of the TaQ8GTC0 protein (378 ng in total, PBS buffer solution) and 114 μl of PBS buffer, the reaction was conducted at 30° C. for 15 minutes, the reaction product was filtered through a […], and 50 μl of the filtered solution was injected into HPLC. HPLC analysis conditions were as described below.
Apparatus: Agilent 1100 series
Column: CAPCELL PAK C18 AQ 4.6 mm (i.d.)×250 mm (SHISEIDO)
Mobile phase: acetonitrile/distilled water=5/95 (hold for 5 min)→(4 min)→40/60 (hold for 4 min)→(4 min)→90/10 (hold for 8 min)→(1 min)→5/95 (hold for 4 min) (each solvent containing 0.5% acetic acid)
When the activity of glutathione conjugation to VLCFAE-inhibiting herbicides was analyzed, the amount of glutathione conjugates (GS conjugates) produced was determined based on the amount of VLCFAE-inhibiting herbicides decreased in the reaction solution.
In Example 1, the conjugation activity to cafenstrole was determined via quantification of the compound released by the glutathione conjugation of this herbicide. In addition, peaks of GS conjugate of other herbicides (i.e., metolachlor, alachlor, flufenacet, mefenacet, phentolazamide, indanofan, anilofos, and piperophos) were unknown. When analyzing the glutathione conjugation activities to these herbicides, accordingly, glutathione conjugation reactions were performed to produce GS conjugate in the modified conditions (i.e., more amount of enzyme was added or the conjugation reaction was conducted for longer time) in the beginning to produce glutathione conjugates (GS conjugates), and the peaks were identified with LC/MS.

[1] = test system: rice plants comprising the TaQ8GTC0 gene introduced therein; experiment: Herbicide resistance test of rice plants comprising the TaQ8GTC0 gene, gellan gum medium, plant height; format: in vivo; details: lineage #3-13; minimal concentration (×1), ×4 and ×16 of Table 4
Protocol: Hoagland's mix and 3 g of gellan gum were suspended in 1 liter of distilled water and thoroughly dissolved therein by heating in a microwave. A fraction of the resultant (15 ml) was injected into a tubular bottle before it was cooled (30 ml was injected into the plate). The herbicide was simultaneously added at the time of injection of the gellan gum medium into the tubular bottle or plate, followed by thorough mixing. Rice hulls were soaked in a 50-fold diluted sodium hypochlorite solution (antiformin) (Wako) for approximately 20 minutes and then thoroughly washed with water. Sterilized seeds were soaked in distilled water and allowed to stand at 27° C. for germination (for approximately 2 days). Germinating seeds were softly planted in the gellan gum medium (plate) containing 0.25 μM BS. These samples, together with a beaker filled with distilled water, were placed in a transparent case, which was then covered with a clear plastic wrap. These samples were grown at 27° C. under fluorescent light illumination (14 hours of a light period and 10 hours of a dark period) for 2 days. Thereafter, rice seeds that were determined to have BS resistance with the use of root elongation as the indicator were transferred to gellan gum media containing pyroxasulfone (tubal bottles) at the final concentrations of 10^−8, 10^−7, 10^−6, and 10^−5M, respectively. Subsequently, these samples, together with a beaker filled with distilled water, were placed in a transparent case, which was then covered with a clear plastic wrap. These samples were grown at 27° C. under fluorescent light illumination (14 hours of a light period and 10 hours of a dark period) for 4 to 5 days, and the plant heights were then measured. Inhibition of shoot growth was determined by comparison to control plants grown in the absence of pyroxasulfone and the concentration for required 50% inhibition (IC50) was determined by the Probit method.
Resistance of rice plants comprising the TaQ8GTC0 gene introduced therein to VLCFAE-inhibiting herbicides was tested in the same manner as with the pyroxasulfone resistance test described above.
FIGS. 7-1 to 7-6 show the results. In FIGS. 7-1 to 7-6, the concentration of 0 μM, the minimal concentration shown in Table 4 (×1), the concentration 4 times higher than the minimal concentration shown in Table 4 (×4), and the concentration 16 times higher than the minimal concentration shown in Table 4 (×16) are shown successively from left to right.

[2] = test system: wild-type rice plant (Nipponbare); experiment: Sensitivity of wild-type rice (Nipponbare) to VLCFAE-inhibiting herbicides, gellan gum medium; format: in vivo; details: Oryza sativa, 168 h; for minimal effective concentration: read-out: Minimal inhibitory concentration; for pIC50: read-out: I50
Protocol: Whether or not a rice plant comprising the TaQ8GTC0 gene introduced therein has VLCFAE-inhibiting herbicide resistance was determined on the basis of a difference in sensitivity of rice between transformant and wild-type. Accordingly, the sensitivity of the wild-type rice plant (Nipponbare) to VLCFAE-inhibiting herbicides used in the glutathione conjugation activity test was examined as described below.
The growth inhibition test was carried out using a gellan gum medium. Hoagland's mix and 3 g of gellan gum were suspended in 1 liter of distilled water and thoroughly dissolved therein by heating in a microwave. A fraction of the resultant (15 ml) was poured in a tubular bottle before it was cooled. When the herbicide (an acetone solution) was to be incorporated thereinto, the herbicide was simultaneously added at the time of filling of the gellan gum medium into the tubular bottle, followed by thorough mixing (final acetone concentration: 0.1%). Rice hulls were soaked in a 50-fold diluted sodium hypochlorite solution (antiformin) (Wako) for approximately 20 minutes and then thoroughly rinsed with water. Sterilized seeds were soaked in distilled water and allowed to stand at 27° C. for germination (for approximately 2 days). Germinating seeds were transferred with the sprout side up to a gellan gum medium containing herbicide (the tubular bottle). Subsequently, these samples, together with a beaker filled with distilled water, were placed in a transparent case, which was then covered with a clear plastic wrap. These samples were grown at 27° C. under fluorescent light illumination (14 hours of a light period and 10 hours of a dark period) for 1 week, the plants were sampled, and the plant heights were then measured. Inhibition of shoot growth was determined by comparison to control plant grown in the absence of herbicide and the concentration required for 50% inhibition (IC50) was determined by the Probit method.

[3] = target: maize-derived GST (GSTI, ZmM16901) (Zea mays, UniProt P12653); details: Non-Patent Document 11; cited from earlier work
maize-derived GST (GSTI, ZmM16901), sequence (P12653 whole entry): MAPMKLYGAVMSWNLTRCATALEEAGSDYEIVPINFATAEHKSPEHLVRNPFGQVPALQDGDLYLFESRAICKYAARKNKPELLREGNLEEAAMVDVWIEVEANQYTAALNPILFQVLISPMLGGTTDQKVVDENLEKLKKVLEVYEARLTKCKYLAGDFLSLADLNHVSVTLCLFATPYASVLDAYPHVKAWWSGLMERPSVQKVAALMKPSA

ZmGST8 (ZmQ9FQD1) = details: Non-Patent Document 12; cited from earlier work
TaQ8GTC1-R protein = experiment: Glutathione conjugation activity of the TaQ8GTC1-R protein to CDNB (absorbance at 340 nm); format: biochemical, wheat; details: 30° C., pH 7.6, n=2
Protocol: The glutathione conjugation activity to CDNB was assayed in a reaction mixture (1 ml in total) containing 634 μl of 100 mM potassium phosphate buffer (pH 7.6), 300 μl of 3.3 mM reduced glutathione, 33 μl of a purified enzyme (PBS solution containing 20% glycerol), and 33 μl of 30 mM CDNB (ethanol solution). First, reaction mixture except CDNB was prepared, enzyme reaction was started by the addition of CDNB, and the absorbance at 340 nm was monitored at 30° C. The enzyme activity was calculated using a molar extinction coefficient of glutathione conjugate of CDNB (GS-CDNB) (9.6 mM^−1cm^−1). The amount of GS-CDNB produced in a negative control mixture prepared with the addition of PBS containing 20% glycerol instead of the enzyme (i.e., a non-enzymatic reaction group) was designated as the amount of non-enzymatic production.

[4] = test system: Arabidopsis thaliana plant comprising the TaQ8GTC0 gene introduced therein; experiment: Sensitivity of Arabidopsis thaliana comprising the TaQ8GTC0 gene to herbicides on MS agar medium; format: in vivo; details: KLB-718 1-1-5; concentrations of Table 5; 22° C., 14 days
Protocol: A medium was prepared as described below, so as to examine the pyroxasulfone resistance of the Arabidopsis thaliana plant comprising the TaQ8GTC0 gene introduced therein. At the outset, the Murashige-Skoog (MS) media (1 bag), thiamin hydrochloride (3 mg), nicotinic acid (5 mg), pyridoxin hydrochloride (0.5 mg), and sucrose (10 g) were added into a 1-liter beaker, a pH was adjusted to 5.7, the volume of the content was adjusted to 1 liter, and 8 g (0.8%) of agar was added. The resultant was autoclaved and cooled to room temperature, and pyroxasulfone (an acetone solution) was added thereto. A 30-ml fraction thereof was fractionated into a No. 2 square plate to prepare an MS medium containing pyroxasulfone at a given concentration.
Pyroxasulfone sensitivity of transgenic Arabidopsis thaliana plants was tested with the use of the medium prepared above as described below. A necessary amount of Arabidopsis thaliana dry seeds was agitated in 70% ethanol for 2 minutes and in hypochlorous acid containing 0.02% Triton-X-100 for 15 minutes, followed by washing with sterile water 10 times. Subsequently, the seeds were suspended in 1 ml of the autoclaved 0.1% agar solution, the suspension was thoroughly mixed to prepare a homogeneous solution, and a total of 30 seeds were each placed on the medium surface. The resultant was sealed with a surgical tape, allowed to stand at 4° C. for 2 days, and then transferred to 22° C. for germination.
On the basis of the concentrations above, sensitivity of the Arabidopsis thaliana plant comprising the TaQ8GTC0 gene introduced therein to VLCFAE-inhibiting herbicides was examined. The results are show in FIGS. 13 and 14. The photographs shown in FIGS. 13 and 14 were taken after the plants were grown at 22° C. for 14 days.

[5] = minimal concentration at which growth of wild-type rice is inhibited
[6] = shoot growth, 1 week, Probit method

## CCc1cccc(CC)c1N(COC)C(=O)CCl [Alachlor]
TaQ8GTC0 protein
  Enzyme activity (glutathione conjugation): 1.5 ± 0.1 μmol/mg protein/15 min
[1]
  growth of rice plants comprising the TaQ8GTC0 gene on herbicide medium: not affected at the minimal concentration, but the growth thereof was inhibited at the 4-fold concentration
[2]; [5]
  minimal effective concentration: 0.5 µM
[2]; [6]
  pIC50: 6.48
[3]
  conjugation activity: high-level conjugation activity
ZmGST8 (ZmQ9FQD1)
  conjugation activity: does not exert conjugation activity

## COP(=S)(OC)SCC(=O)N(c1ccc(Cl)cc1)C(C)(C)C [Anilofos]
[2]; [5]
  minimal effective concentration: 0.5 µM
[2]; [6]
  pIC50: 6.42

## O=[N+]([O-])c1ccc(Cl)c([N+](=O)[O-])c1 [CDNB, 2,4-dinitrochlorobenzene]
TaQ8GTC1-R protein
  glutathione conjugation activity to CDNB: 2.17 μmol/min/mg protein

## CCN(CC)C(=O)n1cnc(S(=O)(=O)c2c(C)cc(C)cc2C)n1 [Cafenstrole]
TaQ8GTC0 protein
  Enzyme activity (glutathione conjugation): 0.46 ± 0.1 μmol/mg protein/15 min
[1]
  growth of rice plants comprising the TaQ8GTC0 gene on herbicide medium: the growth thereof was inhibited at the minimal concentration
[2]; [5]
  minimal effective concentration: 0.75 µM
[2]; [6]
  pIC50: 6.88

## CCOc1cc(Cl)c(CS(=O)(=O)C2=NOC(C)(C)C2)cc1Cl [Fenoxasulfone, 3-[(2,5-dichloro-4-ethoxybenzyl)sulfonyl]-4,5-dihydro-5,5-dimethyl-1,2-oxazole]
TaQ8GTC0 protein
  Enzyme activity (glutathione conjugation): 19.5 ± 8.4 μmol/mg protein/15 min
[1]
  growth of rice plants comprising the TaQ8GTC0 gene on herbicide medium: the growth thereof was not affected at the maximal test concentration
[2]; [5]
  minimal effective concentration: 0.05 µM
[2]; [6]
  pIC50: 7.27
[4]
  sensitivity of the Arabidopsis thaliana plant comprising the TaQ8GTC0 gene to VLCFAE-inhibiting herbicides: strong resistance

## CCN(C(=O)n1nnn(-c2ccccc2Cl)c1=O)C1CCCCC1 [Fentrazamide]
TaQ8GTC0 protein
  Enzyme activity (glutathione conjugation): 0.93 ± 0.2 μmol/mg protein/15 min
[1]
  growth of rice plants comprising the TaQ8GTC0 gene on herbicide medium: the growth thereof was inhibited at the minimal concentration
[2]; [5]
  minimal effective concentration: 0.5 µM
[2]; [6]
  pIC50: 7.34

## CC(C)N(C(=O)COc1nnc(C(F)(F)F)s1)c1ccc(F)cc1 [Flufenacet]
[1]
  growth of rice plants comprising the TaQ8GTC0 gene on herbicide medium: the growth thereof was inhibited at the minimal concentration
[2]; [5]
  minimal effective concentration: 0.075 µM
[2]; [6]
  pIC50: 7.38

## CCC1(CC2(c3cccc(Cl)c3)CO2)C(=O)c2ccccc2C1=O (stereo not drawn) [Indanofan]
[1]
  growth of rice plants comprising the TaQ8GTC0 gene on herbicide medium: the growth thereof was inhibited at the minimal concentration
[2]; [5]
  minimal effective concentration: 0.25 µM
[2]; [6]
  pIC50: 7.21

## CN(C(=O)COc1nc2ccccc2s1)c1ccccc1 [Mefenacet]
[1]
  growth of rice plants comprising the TaQ8GTC0 gene on herbicide medium: not affected at the minimal concentration, but the growth thereof was inhibited at the 4-fold concentration
[2]; [5]
  minimal effective concentration: 0.75 µM
[2]; [6]
  pIC50: 6.41

## CCc1cccc(C)c1N(C(=O)CCl)C(C)COC (stereo not drawn) [Metolachlor]
TaQ8GTC0 protein
  Enzyme activity (glutathione conjugation): 2.2 ± 0.8 μmol/mg protein/15 min
[1]
  growth of rice plants comprising the TaQ8GTC0 gene on herbicide medium: not affected at the minimal concentration, but the growth thereof was inhibited at the 4-fold concentration
[2]; [5]
  minimal effective concentration: 0.75 µM
[2]; [6]
  pIC50: 6.20
[3]
  conjugation activity: does not exert conjugation activity

## CCCOP(=S)(OCCC)SCC(=O)N1CCCCC1C (stereo not drawn) [Piperophos]
[1]
  growth of rice plants comprising the TaQ8GTC0 gene on herbicide medium: the growth thereof was inhibited at the minimal concentration
[2]
  pIC50: 5.88
  minimal effective concentration: 2.5 µM
